# Test results published in patent publication US10221162B2, “Triazole agonists of the APJ receptor” (priority 2015, dated 2019).
# Key:
# [1] = tested on: isolated perfused rat hearts; test: Ex vivo isolated perfused rat heart (Langendorff) assay; conditions: percent change; for Isolated Heart Assay dP/dtmax (%): LV contractility; for Isolated Heart Assay dP/dtmin (%): LV relaxation
# heart failure rat model = test: In vivo cardiac contractility in heart failure (MI) rat model; conditions: heart failure rats; for cardiac contractility as measured by dP/dt: acute administration for 30 min, result in words
# Description: Male Lewis rats (Charles River, USA) at 2-3 months of age were used for the study. […] APJ agonists were administered dose dependently acutely for a period of 30 min.
# The interaction between […] (ACE2) and Apelin biology is complicated. To investigate the interaction between the Apelin-APJ and ACE signalling pathways, we examined the improvement in cardiac function with APJ small molecule agonists in the presence of ACE inhibitor captopril in heart failure rats in vivo.
Structure (SMILES),Isolated Heart Assay dP/dtmax (%) [1],Isolated Heart Assay dP/dtmin (%) [1],cardiac contractility as measured by dP/dt (heart failure rat model),"improvement in contractility or ejection fraction (heart failure rat model; captopril alone, acute settings)"
"COc1cccc(OC)c1-n1c(NS(=O)(=O)[C@@H](C)[C@H](OC)c2ncc(F)cn2)nnc1-c1cncc(C)c1 (single isomer, unassigned) [Example 242.0]",5.0%,−2.7%,,
"COc1cccc(OC)c1-n1c(NS(=O)(=O)[C@@H](C)[C@H](O)c2ncc(C)cn2)nnc1-c1cncc(C)c1 [Example 371.0, (1R,2S)—N-(4-(2,6-dimethoxyphenyl)-5-(5-methylpyridin-3-yl)-4H-1,2,4-triazol-3-yl)-1-hydroxy-1-(5-methylpyrimidin-2-yl)propane-2-sulfonamide]",,,increase in cardiac contractility,
C[C@H](CS)C(=O)N1CCC[C@H]1C(=O)O [Captopril],,,,does not show a marked improvement in contractility or ejection fraction
"COc1cccc(OC)c1-n1c(NS(=O)(=O)[C@H](C)[C@@H](OC)c2ccc(Cl)cn2)nnc1-c1cccnc1 (single isomer, unassigned) [Example 531.0, (1S,2R)-1-(5-chloro-2-pyridinyl)-N-(4-(2,6-dimethoxyphenyl)-5-(3-pyridinyl)-4H-1,2,4-triazol-3-yl)-1-methoxy-2-propanesulfonamide or (1R,2S)-1-(5-chloro-2-pyridinyl)-N-(4-(2,6-dimethoxyphenyl)-5-(3-pyridinyl)-4H-1,2,4-triazol-3-yl)-1-methoxy-2-propanesulfonamide]",4.1%,1.9%,,
"COc1cccc(OC)c1-n1c(NS(=O)(=O)[C@@H](C)[C@H](C)c2ncc(F)cn2)nnc1-c1cccnc1 (single isomer, unassigned) [Example 184.0, (2R,3S)-N-(4-(2,6-dimethoxyphenyl)-5-(3-pyridinyl)-4H-1,2,4-triazol-3-yl)-3-(5-fluoro-2-pyrimidinyl)-2-butanesulfonamide or (2S,3R)-N-(4-(2,6-dimethoxyphenyl)-5-(3-pyridinyl)-4H-1,2,4-triazol-3-yl)-3-(5-fluoro-2-pyrimidinyl)-2-butanesulfonamide]",14.5%,14.0%,,
"COc1cccc(OC)c1-n1c(NS(=O)(=O)[C@@H](C)[C@H](C)c2ncc(C)cn2)nnc1-c1cccnc1 [Example 586.0, (2S,3R)—N-(4-(2,6-dimethoxyphenyl)-5-(3-pyridinyl)-4H-1,2,4-triazol-3-yl)-3-(5-methyl-2-pyrimidinyl)-2-butanesulfonamide]",,,increase in cardiac contractility,
"COc1ncnc(OC)c1-n1c(NS(=O)(=O)[C@@H](C)[C@H](OC)c2ccc(Cl)cn2)nnc1-c1cccnc1 (single isomer, unassigned) [Example 711.0, (1R,2S)-1-(5-chloro-2-pyridinyl)-N-(4-(4,6-dimethoxy-5-pyrimidinyl)-5-(3-pyridinyl)-4H-1,2,4-triazol-3-yl)-1-methoxy-2-propanesulfonamide or (1S,2R)-1-(5-chloro-2-pyridinyl)-N-(4-(4,6-dimethoxy-5-pyrimidinyl)-5-(3-pyridinyl)-4H-1,2,4-triazol-3-yl)-1-methoxy-2-propanesulfonamide]",9.4%,1.1%,,
"COc1cnc([C@H](O)[C@@H](C)S(=O)(=O)Nc2nnc(-c3cccnc3)n2-c2c(OC)cccc2OC)cn1 (single isomer, unassigned) [Example 706.0, (1S,2R)-N-(4-(2,6-dimethoxyphenyl)-5-(3-pyridinyl)-4H-1,2,4-triazol-3-yl)-1-hydroxy-1-(5-methoxy-2-pyrazinyl)-2-propanesulfonamide or (1R,2S)-N-(4-(2,6-dimethoxyphenyl)-5-(3-pyridinyl)-4H-1,2,4-triazol-3-yl)-1-hydroxy-1-(5-methoxy-2-pyrazinyl)-2-propanesulfonamide]",9.1%,4.0%,,
"COc1cccc(OC)c1-n1c(NS(=O)(=O)[C@@H](C)[C@H](OC)c2ncc(F)cn2)nnc1-c1cccnc1 (single isomer, unassigned) [Example 244.0]",14.0%,15.0%,,
